Reference: patent US8735624B2, “Polymorphic form of CHDMAPP, method of preparation thereof, and pharmaceutical composition comprising same” (Innate Pharma, priority 2008, dated 2014)

Key:
[1] = solid phase stability on storage (XRPD); format: physicochemical; details: for crystalline structure after storage (XRPD): stored 3 months at 40° C., 75% RH
Experimental: X-Ray Powder Diffraction measurements were carried out by using a SIEMENS D5005 diffractometer (Bruker analytical X-Ray Systems, D-76187 Karlsruhe, Germany) with a Bragg Brentano geometry, in theta-theta reflection mode. The instrument is equipped with a X-Ray tube (copper anticathode, 40 kV, 30 mA, Kα1 radiation: 1.5406 Å, Kα2 radiation: 1.5444 Å), a nickel filter and a scintillation detector. The diffraction patterns were collected by steps of 0.04° (2-theta) over the angular range 3°-30°, with a counting time of 4 s per step. No internal standard was used but a sample of quartz was analyzed as an external standard. The temperature of the sample was either the room temperature or accurately monitored when heating was required. DIFFRAC PLUS Edit Job software (v. 2.00) was used as control software and data processing was performed by using the Eva software (v. 9.0 and v. 10.0).

[2] = DVS hygroscopicity and moisture measurements; format: physicochemical; details: result in words
Experimental: Moisture sorption isotherms of the crystalline phases were obtained by using a DVS-1 automated water sorption analyzer (Surface Measurements Systems, Alperton, Middlesex, United Kingdom). The reference material was an empty glass pan and the total gas flow was 200 sccm.min^−1 (Standard Cubic Centimeters per minute). Temperature of analysis was 20° C. For each measurement, precisely ca. 15 mg of the sample were weighed in a glass pan beforehand allowed for the tare, then placed in the analyzer.
As a first stage, dry nitrogen (0% R.H) was applied until constant weight of the sample in order to eliminate adsorbed or absorbed water (potential dehydration). Then, mass variations were recorded while R.H. was increased by steps of 10% R.H. The automated analyzer was allowed to start the following step as soon as the mass variation of the sample was less than 5.10^−4 mg.min^−1. The upper limit was adjusted below the deliquescence of the compound and never exceeded 90% R.H.
DVSWin (v 2.18) was used as control and data collection software whereas data processing was performed by using DVS Standard Analysis Suite (v 4.3).
Further parameters used in DVS procedures are as follows:
Protocole Dynamic Vapor Sorption/Appareil ‘Surface Measurements Systems)=
Automated Water Sorption Analyzer’/model: DVS−1
Analysis method: • step mode, • Temperature: 20° C. • step dm/dt<0.0005 (mg/min) • First stage R.H.=0% • Last Stage R.H.=90% • Minimum Stage: 20 min • Maximum Stage: 120 min • Total Gas Flow: 200 • Nitrogen: 200 Bars, H2O<3 ppm, O2<2 ppm, Réf. Nitrogen N50 B50*0 Software—data collection and data processing: • DVSWin v2.18 (control software), • DVS Standard Analysis Suite v4.3 (analysis software).]

[3] = pKa of the acidic functions; format: physicochemical
Source text: Each of these acidic functions can be coupled with a cation. Therefore, three stoichiometries of sodium salts of CHDMAPP may be prepared: A monosodium salt, a disodium salt and a trisodium salt.

[4] = test system: γδ T cells; details: activator of γδ T cells; times higher than BrHPP; cited from earlier work
[5] = stability of CHDMAPP in solution in water; format: physicochemical; details: in solution in water at 5% in weight, 55° C.
Source text: The crystalline phase thus provides a dramatic improvement of the stability and of the storage capabilities of the drug product.

[6] = TG/DSC thermal stability; format: physicochemical; details: TGA-DSC
Experimental: The stability range was assessed using Differential Scanning calorimetry (DSC), using a Netzsch STA 449C apparatus, as is described in detail hereinafter, and having a standard deviation of ±0.5° C. The person skilled in the art will appreciate that alternative readings of the melting point may result from the use of other types of DSC equipment and/or the use of other system under conditions different to those described below.
TG/DSC measurements were carried out by using a NETZSCH STA 449C Jupiter Thermogravimetric Analyzer (NETZSCH, D-95100 Selb, Germany) equipped with a low temperature furnace. The purge gas used was helium (gas flow=50 mL/min) and the reference material was an empty aluminum pan without cap. The samples were weighed in open aluminum pans, and then placed in the analyzer. The analyses were performed within various temperature ranges using a 2°.min^−1 heating rate. PROTEUS software was used for the acquisition and data processing (v. 4.7.0).

[7] = ICH stability testing (chemical purity by HPAEC); format: physicochemical; details: closed glass vials
Experimental: The chemical purity of phosphoesters (including the isomeric purity for geometric isomers) is determined using High Performance Anion-Exchange Chromatography (HPAEC) with suppressed conductivity detection. The HPAEC device comprises a DIONEX DX600 system (DIONEX Corporation, Sunnyvale Calif., USA) connected to computer loaded with DIONEX Chromeleon® chromatography software. A DIONEX CD25 conductivity detector is used with an anion self regenerating suppressor (ASRS®-ultra II-4 mm), which is set to either auto-suppression mode or external water mode. The HPAEC column used is a DIONEX Ion Pac® AS11 column (4×250 mm) equipped with an AG11 guard column (4×50 mm). In this procedure, phosphoesters are eluted (as anionic form) from the anion exchange column with a sodium or potassium hydroxide step gradient.
Stability tests of CHDMAPP-Na2,1H2O have been conducted according to ICH guideline Q7a, Section 19.11, under various storage conditions: 5° C., and 25° C./60% RH, both in closed glass vials. Purity has been assessed at regular time intervals (t0, 1, 3, 6 and 9 months) by HPAEC using a Dionex Ion Pac AS11, 4.0×250 mm column and a Dionex Ion Pac AG11, […] and by eluting with a gradient of water and NaOH solution.

## C/C(=C\CCP(=O)([O-])OP(=O)(O)O)CO.C/C(=C\CCP(=O)([O-])OP(=O)(O)O)CO.[Na+].[Na+] [CHDMAPP-Na2,0H2O, anhydrous (2E)-1-hydroxy-2-methylpent-2-enyl-pyrophosphonate disodium]
[1]
  crystalline structure after storage (XRPD): completely modified
[2]
  hygroscopicity: hygroscopic
[2]; listed as anhydrous salt
  hygroscopicity: somewhat hygroscopic

## C/C(=C\CCP(=O)(O)OP(=O)(O)O)CO [CHDMAPP, (2E)-1-hydroxy-2-methylpent-2-enyl-pyrophosphonate]
[3]; one function, weak pKa
  pKa of the weak acidic function: 7.1
[3]; two functions, strong pKa
  pKa of the two strong acidic functions: 2.1
[4]
  in vitro activity relative to BrHPP (Phosphostim): approximately 100 times
[5]
  half-life: 62.4 h

## CC(=CCCP(=O)([O-])OP(=O)([O-])[O-])CO.[Na+].[Na+].[Na+] [trisodium]
[2]
  hygroscopicity: very hygroscopic solid

## C/C(=C\CCP(=O)(O)OP(=O)(O)O)CO [CHDMAPP-Na2,1H2O, (2E)-1-hydroxy-2-methylpent-2-enyl-pyrophosphonate disodium monohydrate]
[1]; after more than 6 months, 25° C., 60% RH
  spontaneous phase transformation on storage: does not observe any spontaneous phase transformation
[1]
  crystalline structure after storage (XRPD): has not been modified
[6]; listed as monohydrate disodium salt
  temperature up to which compound is stable (onset of endothermic dehydration peak): 115 °C
[6]; disodium monohydrate
  temperature up to which compound is stable (onset of endothermic dehydration peak): 115.7 °C
[2]
  hygroscopicity: great non-hygroscopicity
[7]; storage 5° C., 1 month
  Purity: 99.1%
[7]; storage 5° C., 3 months
  Purity: 99.2%
[7]; storage 5° C., 6 months
  Purity: 98.8%
[7]; storage 5° C., 9 months
  Purity: 98.9%
[7]; storage 5° C., t 0
  Purity: 99.3%
[7]; storage 25° C./60% R.H., 1 month
  Purity: 99.2%
[7]; storage 25° C./60% R.H., 3 months
  Purity: 99.1%
[7]; storage 25° C./60% R.H., 6 months
  Purity: 98.7%
[7]; storage 25° C./60% R.H., 9 months
  Purity: 98.9%
[7]; storage 25° C./60% R.H., t 0
  Purity: 99.3%
